Measured values reported in the supplement of paper PMC10307832.

Key:
Experiment in all cases: relative viability (nuclei count vs DMSO), 5 days (fraction); higher = more cells survive
NCI-H358 = tested on: NCI-H358
Method in brief: (§1)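 Lung cancer cell lines were pin-tool dosed in 1536-well plates on the day after seeding, with either a lone drug or a fixed anchor-drug dose plus five library-drug doses (not always all listed) in √10 steps. Nuclei were counted on 4× images after 5 days. Relative viability is the ratio of treated-well to vehicle-well nuclei counts, with each value a median of duplicate plates.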

SK-LU-1 = tested on: SK-LU-1
Method in brief: as §1

LOU-NH91 = tested on: LOU-NH91
Method in brief: as §1

NCI-H1915 = tested on: NCI-H1915
Method in brief: as §1

NCI-H460 = tested on: NCI-H460
Method in brief: as §1

NCI-H1734 = tested on: NCI-H1734
Method in brief: as §1

NCI-H1755 = tested on: NCI-H1755
Method in brief: as §1

HCC-78 = tested on: HCC-78
Method in brief: as §1

SW 1573 = tested on: SW 1573
Method in brief: as §1

PC-3 [JPC-3] = tested on: PC-3 [JPC-3]
Method in brief: as §1

NCI-H522 = tested on: NCI-H522
Method in brief: as §1

NCI-H2228 = tested on: NCI-H2228
Method in brief: as §1

HOP-62 = tested on: HOP-62
Method in brief: as §1

A-427 = tested on: A-427
Method in brief: as §1

RERF-LC-KJ = tested on: RERF-LC-KJ
Method in brief: as §1

NCI-H2342 = tested on: NCI-H2342
Method in brief: as §1

NCI-H2347 = tested on: NCI-H2347
Method in brief: as §1

NCI-H2126 = tested on: NCI-H2126
Method in brief: as §1

NCI-H1792 = tested on: NCI-H1792
Method in brief: as §1

LC-2-ad = tested on: LC-2-ad
Method in brief: as §1

LXF-289 = tested on: LXF-289
Method in brief: as §1

NCI-H647 = tested on: NCI-H647
Method in brief: as §1

NCI-H1975 = tested on: NCI-H1975
Method in brief: as §1

HCC-15 = tested on: HCC-15
Method in brief: as §1

SMILES: C[C@@H]1CN(CC(=O)Nc2ccc3c(c2)Cc2cccc(-c4cc(=O)cc(N5CCOCC5)o4)c2S3)C[C@H](C)O1 + O=C(c1cc(Cc2n[nH]c(=O)c3ccccc23)ccc1F)N1CCN(C(=O)C2CC2)CC1 [Olaparib] (partner 8 µM)
- relative viability (NCI-H358; first compound 0.04 µM): 0.654
- relative viability (NCI-H358; first compound 0.1265 µM): 0.66
- relative viability (NCI-H358; first compound 0.4 µM): 0.625
- relative viability (NCI-H358; first compound 4 µM): 0.178
- relative viability (SK-LU-1; first compound 0.04 µM): 0.566
- relative viability (SK-LU-1; first compound 0.1265 µM): 0.667
- relative viability (SK-LU-1; first compound 0.4 µM): 0.575
- relative viability (SK-LU-1; first compound 4 µM): 0.219
- relative viability (LOU-NH91; first compound 0.04 µM): 0.938
- relative viability (LOU-NH91; first compound 0.1265 µM): 0.964
- relative viability (LOU-NH91; first compound 0.4 µM): 0.907
- relative viability (LOU-NH91; first compound 4 µM): 0.721
- relative viability (NCI-H1915; first compound 0.04 µM): 0.25
- relative viability (NCI-H1915; first compound 0.1265 µM): 0.248
- relative viability (NCI-H1915; first compound 0.4 µM): 0.265
- relative viability (NCI-H1915; first compound 4 µM): 0.182
- relative viability (NCI-H460; first compound 0.04 µM): 0.506
- relative viability (NCI-H460; first compound 0.1265 µM): 0.444
- relative viability (NCI-H460; first compound 0.4 µM): 0.502
- relative viability (NCI-H460; first compound 4 µM): 0.112
- relative viability (NCI-H1734; first compound 0.04 µM): 0.73
- relative viability (NCI-H1734; first compound 0.1265 µM): 0.573
- relative viability (NCI-H1734; first compound 0.4 µM): 0.613
- relative viability (NCI-H1734; first compound 4 µM): 0.551
- relative viability (NCI-H1755; first compound 0.04 µM): 0.845
- relative viability (NCI-H1755; first compound 0.1265 µM): 0.918
- relative viability (NCI-H1755; first compound 0.4 µM): 0.833
- relative viability (NCI-H1755; first compound 4 µM): 0.958
- relative viability (HCC-78; first compound 0.04 µM): 0.735
- relative viability (HCC-78; first compound 0.1265 µM): 0.807
- relative viability (HCC-78; first compound 0.4 µM): 0.925
- relative viability (HCC-78; first compound 4 µM): 0.595
- relative viability (SW 1573; first compound 0.04 µM): 0.553
- relative viability (SW 1573; first compound 0.1265 µM): 0.546
- relative viability (SW 1573; first compound 0.4 µM): 0.495
- relative viability (SW 1573; first compound 4 µM): 0.21
- relative viability (PC-3 [JPC-3]; first compound 0.04 µM): 1.17
- relative viability (PC-3 [JPC-3]; first compound 0.1265 µM): 1.08
- relative viability (PC-3 [JPC-3]; first compound 0.4 µM): 1.16
- relative viability (PC-3 [JPC-3]; first compound 4 µM): 0.608
- relative viability (NCI-H522; first compound 0.04 µM): 0.612
- relative viability (NCI-H522; first compound 0.1265 µM): 0.667
- relative viability (NCI-H522; first compound 0.4 µM): 0.576
- relative viability (NCI-H522; first compound 4 µM): 0.614
- relative viability (NCI-H2228; first compound 0.04 µM): 0.781
- relative viability (NCI-H2228; first compound 0.1265 µM): 0.505
- relative viability (NCI-H2228; first compound 0.4 µM): 0.571
- relative viability (NCI-H2228; first compound 4 µM): 0.174
- relative viability (HOP-62; first compound 0.04 µM): 0.283
- relative viability (HOP-62; first compound 0.1265 µM): 0.442
- relative viability (HOP-62; first compound 0.4 µM): 0.452
- relative viability (HOP-62; first compound 4 µM): 0.0812
- relative viability (A-427; first compound 0.04 µM): 0.658
- relative viability (A-427; first compound 0.1265 µM): 0.734
- relative viability (A-427; first compound 0.4 µM): 0.731
- relative viability (A-427; first compound 4 µM): 0.669
- relative viability (RERF-LC-KJ; first compound 0.04 µM): 0.917
- relative viability (RERF-LC-KJ; first compound 0.1265 µM): 0.984
- relative viability (RERF-LC-KJ; first compound 0.4 µM): 1.01
- relative viability (RERF-LC-KJ; first compound 4 µM): 0.323
- relative viability (NCI-H2342; first compound 0.04 µM): 0.567
- relative viability (NCI-H2342; first compound 0.1265 µM): 0.52
- relative viability (NCI-H2342; first compound 0.4 µM): 0.52
- relative viability (NCI-H2342; first compound 4 µM): 0.419
- relative viability (NCI-H2347; first compound 0.04 µM): 0.636
- relative viability (NCI-H2347; first compound 0.1265 µM): 0.545
- relative viability (NCI-H2347; first compound 0.4 µM): 0.57
- relative viability (NCI-H2347; first compound 4 µM): 0.448
- relative viability (NCI-H2126; first compound 0.04 µM): 0.928
- relative viability (NCI-H2126; first compound 0.1265 µM): 0.873
- relative viability (NCI-H2126; first compound 0.4 µM): 0.95
- relative viability (NCI-H2126; first compound 4 µM): 0.928
- relative viability (NCI-H1792; first compound 0.04 µM): 0.715
- relative viability (NCI-H1792; first compound 0.1265 µM): 0.407
- relative viability (NCI-H1792; first compound 0.4 µM): 0.315
- relative viability (NCI-H1792; first compound 4 µM): 0.102
- relative viability (LC-2-ad; first compound 0.04 µM): 0.657
- relative viability (LC-2-ad; first compound 0.1265 µM): 0.653
- relative viability (LC-2-ad; first compound 0.4 µM): 0.689
- relative viability (LC-2-ad; first compound 4 µM): 0.433
- relative viability (LXF-289; first compound 0.04 µM): 0.998
- relative viability (LXF-289; first compound 0.1265 µM): 1.1
- relative viability (LXF-289; first compound 0.4 µM): 1.21
- relative viability (LXF-289; first compound 4 µM): 1.05
- relative viability (NCI-H647; first compound 0.04 µM): 0.611
- relative viability (NCI-H647; first compound 0.1265 µM): 0.436
- relative viability (NCI-H647; first compound 0.4 µM): 0.417
- relative viability (NCI-H647; first compound 4 µM): 0.0936
- relative viability (NCI-H1975; first compound 0.04 µM): 0.78
- relative viability (NCI-H1975; first compound 0.1265 µM): 0.748
- relative viability (NCI-H1975; first compound 0.4 µM): 0.713
- relative viability (NCI-H1975; first compound 4 µM): 0.274
- relative viability (HCC-15; first compound 0.04 µM): 0.722
- relative viability (HCC-15; first compound 0.1265 µM): 0.658
- relative viability (HCC-15; first compound 0.4 µM): 0.586
- relative viability (HCC-15; first compound 4 µM): 0.286
